Columns and labels:
Type in all cases: biochemical, human/mammalian
Details in all cases: compound at 10 μM, read-out: % of activity respect of the control
SmMLCK = SmMLCK (Homo sapiens, UniProt Q15746); assay: Kinase panel: SmMLCK
Method: (§1) The DDU kinase-focused compound set contains lead-like scaffolds that are designed to target protein kinases; they have kinase hinge binding motifs. Four of the 1H-imidazopyrazinones were screened against a human/mammalian kinase panel at the University of Dundee (http://www.kinase-screen.mrc.ac.uk) at a concentration of 10 μM. At the time of testing the panel contained 79 mammalian kinases selected to provide a broad coverage of the mammalian kinome (∼500 kinases in the human genome).[3] None of the compounds were active against any of the kinases at 10 μM.

MNK1 = MNK1 (Homo sapiens, UniProt Q9BUB5); assay: Kinase panel: MNK1
Method: as §1

MST2 = molecular target: T1, MST2 (Homo sapiens, UniProt Q13188); assay: Kinase panel: MST2
T1 sequence (Q13188 1-491): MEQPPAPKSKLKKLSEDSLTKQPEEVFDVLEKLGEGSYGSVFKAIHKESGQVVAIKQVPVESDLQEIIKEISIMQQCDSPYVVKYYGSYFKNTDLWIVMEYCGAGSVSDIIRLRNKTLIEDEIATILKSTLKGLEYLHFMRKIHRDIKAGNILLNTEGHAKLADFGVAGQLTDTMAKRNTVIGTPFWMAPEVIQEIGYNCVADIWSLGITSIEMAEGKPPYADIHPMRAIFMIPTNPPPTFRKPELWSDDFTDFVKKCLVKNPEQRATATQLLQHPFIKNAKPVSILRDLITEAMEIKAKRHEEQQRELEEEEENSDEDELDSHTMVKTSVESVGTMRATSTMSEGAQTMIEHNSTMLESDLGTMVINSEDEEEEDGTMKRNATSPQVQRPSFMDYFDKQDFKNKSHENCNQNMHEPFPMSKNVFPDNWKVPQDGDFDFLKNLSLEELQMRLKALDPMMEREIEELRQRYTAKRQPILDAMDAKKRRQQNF
Method: as §1

BTK = BTK (Homo sapiens, UniProt Q06187); assay: Kinase panel: BTK
Method: as §1

CHK2 = CHK2 (Homo sapiens, UniProt O96017); assay: Kinase panel: CHK2
Method: as §1

Aurora B = Aurora B (Homo sapiens, UniProt Q96GD4); assay: Kinase panel: Aurora B
Method: as §1

TBK1 = molecular target: T2, TBK1 (Homo sapiens, UniProt Q9UHD2); assay: Kinase panel: TBK1
T2 sequence (Q9UHD2 1-729): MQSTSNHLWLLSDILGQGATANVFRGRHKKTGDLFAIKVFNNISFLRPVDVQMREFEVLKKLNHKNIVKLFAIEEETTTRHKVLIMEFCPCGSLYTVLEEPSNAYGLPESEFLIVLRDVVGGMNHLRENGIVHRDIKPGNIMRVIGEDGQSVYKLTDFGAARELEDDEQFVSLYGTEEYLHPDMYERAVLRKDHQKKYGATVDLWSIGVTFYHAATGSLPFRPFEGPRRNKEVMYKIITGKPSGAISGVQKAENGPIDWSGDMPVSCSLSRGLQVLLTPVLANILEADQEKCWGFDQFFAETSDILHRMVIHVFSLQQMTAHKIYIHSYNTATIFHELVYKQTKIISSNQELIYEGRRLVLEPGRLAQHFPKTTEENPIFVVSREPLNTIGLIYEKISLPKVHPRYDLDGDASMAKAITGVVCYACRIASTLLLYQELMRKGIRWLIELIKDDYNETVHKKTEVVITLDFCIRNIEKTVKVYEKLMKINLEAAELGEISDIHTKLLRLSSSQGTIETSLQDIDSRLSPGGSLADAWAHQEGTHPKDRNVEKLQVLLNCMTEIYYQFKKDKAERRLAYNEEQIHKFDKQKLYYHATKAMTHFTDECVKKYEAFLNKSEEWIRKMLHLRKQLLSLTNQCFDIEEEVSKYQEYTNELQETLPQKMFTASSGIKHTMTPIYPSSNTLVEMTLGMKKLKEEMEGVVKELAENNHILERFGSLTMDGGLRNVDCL
Method: as §1

p38s MAPK = molecular target: T3, p38s MAPK (Homo sapiens, UniProt O15264); assay: Kinase panel: p38s MAPK
T3 sequence (O15264 1-365): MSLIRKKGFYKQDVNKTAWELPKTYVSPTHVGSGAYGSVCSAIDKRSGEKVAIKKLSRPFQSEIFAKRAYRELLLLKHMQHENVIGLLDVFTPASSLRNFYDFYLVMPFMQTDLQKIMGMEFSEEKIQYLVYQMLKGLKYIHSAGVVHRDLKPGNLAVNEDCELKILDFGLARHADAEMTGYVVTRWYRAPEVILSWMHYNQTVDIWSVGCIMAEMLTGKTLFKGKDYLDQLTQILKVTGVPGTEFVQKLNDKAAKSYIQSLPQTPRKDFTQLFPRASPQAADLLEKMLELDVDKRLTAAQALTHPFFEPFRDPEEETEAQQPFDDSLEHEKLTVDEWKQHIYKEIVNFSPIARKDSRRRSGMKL
Method: as §1

IKKb = molecular target: T4, IKKb (Homo sapiens, UniProt O14920); assay: Kinase panel: IKKb
T4 sequence (O14920 1-756): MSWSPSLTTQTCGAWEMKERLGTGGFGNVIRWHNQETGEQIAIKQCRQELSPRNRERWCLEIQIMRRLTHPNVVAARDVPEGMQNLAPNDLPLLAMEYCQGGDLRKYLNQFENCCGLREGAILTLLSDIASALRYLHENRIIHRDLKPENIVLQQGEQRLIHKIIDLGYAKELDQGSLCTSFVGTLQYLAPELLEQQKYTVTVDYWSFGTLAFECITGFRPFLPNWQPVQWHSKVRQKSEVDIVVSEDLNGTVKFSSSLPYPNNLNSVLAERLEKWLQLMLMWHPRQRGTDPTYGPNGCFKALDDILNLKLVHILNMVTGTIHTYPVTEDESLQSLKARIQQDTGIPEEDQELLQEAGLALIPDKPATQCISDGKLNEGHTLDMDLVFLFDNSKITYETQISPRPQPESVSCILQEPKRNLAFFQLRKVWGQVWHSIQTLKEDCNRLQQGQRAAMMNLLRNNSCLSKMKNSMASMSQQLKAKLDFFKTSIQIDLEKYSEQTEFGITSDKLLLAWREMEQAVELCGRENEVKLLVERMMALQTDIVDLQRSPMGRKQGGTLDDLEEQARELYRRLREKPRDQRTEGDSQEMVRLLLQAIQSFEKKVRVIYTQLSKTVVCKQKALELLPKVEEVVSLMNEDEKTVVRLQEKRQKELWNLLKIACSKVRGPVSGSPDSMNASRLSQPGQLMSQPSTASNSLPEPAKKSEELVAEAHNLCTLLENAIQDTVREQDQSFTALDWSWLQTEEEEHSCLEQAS
Method: as §1

Aurora B, sequence (Q96GD4 whole entry): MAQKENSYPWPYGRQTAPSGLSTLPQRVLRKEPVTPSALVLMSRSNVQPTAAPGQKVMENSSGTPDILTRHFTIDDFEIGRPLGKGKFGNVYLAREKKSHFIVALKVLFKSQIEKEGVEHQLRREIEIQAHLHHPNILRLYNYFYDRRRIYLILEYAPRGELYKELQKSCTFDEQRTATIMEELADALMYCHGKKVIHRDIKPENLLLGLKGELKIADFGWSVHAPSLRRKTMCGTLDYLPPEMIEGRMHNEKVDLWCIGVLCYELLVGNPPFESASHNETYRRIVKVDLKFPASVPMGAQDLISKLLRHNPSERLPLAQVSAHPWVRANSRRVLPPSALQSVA
BTK, sequence (Q06187 whole entry): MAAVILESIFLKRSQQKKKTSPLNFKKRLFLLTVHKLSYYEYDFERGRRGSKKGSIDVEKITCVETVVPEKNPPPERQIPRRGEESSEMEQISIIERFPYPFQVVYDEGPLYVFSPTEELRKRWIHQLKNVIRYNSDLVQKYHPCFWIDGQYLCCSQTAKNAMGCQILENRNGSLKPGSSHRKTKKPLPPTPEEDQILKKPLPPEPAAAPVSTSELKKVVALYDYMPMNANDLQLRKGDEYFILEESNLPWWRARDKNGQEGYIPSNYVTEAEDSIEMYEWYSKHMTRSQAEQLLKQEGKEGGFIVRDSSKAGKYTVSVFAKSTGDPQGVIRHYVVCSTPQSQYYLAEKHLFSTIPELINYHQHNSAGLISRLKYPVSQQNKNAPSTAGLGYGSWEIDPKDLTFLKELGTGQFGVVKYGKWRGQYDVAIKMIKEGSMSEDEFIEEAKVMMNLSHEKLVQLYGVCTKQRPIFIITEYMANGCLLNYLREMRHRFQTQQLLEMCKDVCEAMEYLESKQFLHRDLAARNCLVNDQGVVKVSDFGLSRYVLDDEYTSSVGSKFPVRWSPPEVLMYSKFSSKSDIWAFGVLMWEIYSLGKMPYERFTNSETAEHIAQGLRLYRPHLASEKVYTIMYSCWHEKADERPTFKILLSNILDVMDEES
CHK2, sequence (O96017 whole entry): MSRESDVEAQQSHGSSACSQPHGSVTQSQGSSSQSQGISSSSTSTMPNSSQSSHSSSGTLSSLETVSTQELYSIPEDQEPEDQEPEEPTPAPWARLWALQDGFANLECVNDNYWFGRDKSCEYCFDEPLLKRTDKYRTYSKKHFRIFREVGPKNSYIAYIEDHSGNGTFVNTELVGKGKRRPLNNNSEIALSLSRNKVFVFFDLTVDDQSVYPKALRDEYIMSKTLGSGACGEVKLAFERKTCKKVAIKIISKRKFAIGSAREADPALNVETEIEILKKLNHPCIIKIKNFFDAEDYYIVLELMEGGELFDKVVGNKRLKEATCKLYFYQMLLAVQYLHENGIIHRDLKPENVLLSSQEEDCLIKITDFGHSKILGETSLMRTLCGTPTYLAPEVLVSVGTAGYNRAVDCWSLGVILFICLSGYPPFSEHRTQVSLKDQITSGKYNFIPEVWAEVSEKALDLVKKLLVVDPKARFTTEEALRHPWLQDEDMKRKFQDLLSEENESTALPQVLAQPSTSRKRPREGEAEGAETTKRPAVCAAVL
MNK1, sequence (Q9BUB5 whole entry): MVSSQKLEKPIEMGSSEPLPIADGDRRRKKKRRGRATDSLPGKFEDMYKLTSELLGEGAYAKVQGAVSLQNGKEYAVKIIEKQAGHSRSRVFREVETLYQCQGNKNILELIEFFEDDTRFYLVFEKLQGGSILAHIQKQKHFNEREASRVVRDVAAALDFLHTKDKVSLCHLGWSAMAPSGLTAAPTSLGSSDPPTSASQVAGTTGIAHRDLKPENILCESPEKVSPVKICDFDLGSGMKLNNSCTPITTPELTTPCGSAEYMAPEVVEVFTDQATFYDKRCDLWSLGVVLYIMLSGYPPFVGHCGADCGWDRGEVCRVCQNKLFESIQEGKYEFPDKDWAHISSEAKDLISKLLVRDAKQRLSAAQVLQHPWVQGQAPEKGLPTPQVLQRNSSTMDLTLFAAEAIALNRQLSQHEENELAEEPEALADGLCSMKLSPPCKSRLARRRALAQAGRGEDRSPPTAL
SmMLCK, sequence (Q15746 923-1914): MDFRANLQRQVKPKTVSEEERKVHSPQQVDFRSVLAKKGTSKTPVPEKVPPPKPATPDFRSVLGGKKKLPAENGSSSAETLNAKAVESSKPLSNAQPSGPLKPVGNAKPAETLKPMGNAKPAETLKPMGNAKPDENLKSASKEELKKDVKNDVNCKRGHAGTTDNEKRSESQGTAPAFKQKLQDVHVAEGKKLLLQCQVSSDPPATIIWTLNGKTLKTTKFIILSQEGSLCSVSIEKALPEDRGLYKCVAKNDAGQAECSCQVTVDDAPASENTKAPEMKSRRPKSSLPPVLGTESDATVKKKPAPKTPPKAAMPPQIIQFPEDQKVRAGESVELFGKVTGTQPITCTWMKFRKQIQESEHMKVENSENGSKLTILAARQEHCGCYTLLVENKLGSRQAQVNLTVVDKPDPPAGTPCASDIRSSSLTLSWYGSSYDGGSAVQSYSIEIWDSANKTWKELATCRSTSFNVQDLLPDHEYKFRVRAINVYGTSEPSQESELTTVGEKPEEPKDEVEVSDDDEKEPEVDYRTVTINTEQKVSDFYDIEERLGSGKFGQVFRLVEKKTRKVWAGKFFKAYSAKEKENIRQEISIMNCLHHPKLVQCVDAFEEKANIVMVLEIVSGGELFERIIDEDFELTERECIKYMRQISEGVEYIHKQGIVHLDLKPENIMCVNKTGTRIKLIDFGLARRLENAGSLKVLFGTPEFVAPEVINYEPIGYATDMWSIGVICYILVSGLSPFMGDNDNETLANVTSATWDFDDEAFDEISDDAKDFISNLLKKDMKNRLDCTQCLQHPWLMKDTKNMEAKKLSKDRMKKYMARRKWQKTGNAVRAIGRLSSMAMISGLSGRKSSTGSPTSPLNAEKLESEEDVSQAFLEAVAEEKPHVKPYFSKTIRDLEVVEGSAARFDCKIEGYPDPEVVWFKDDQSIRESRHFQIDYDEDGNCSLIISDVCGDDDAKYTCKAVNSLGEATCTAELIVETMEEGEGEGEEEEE

Structure (SMILES) | remaining activity at 10 µM (SmMLCK) [%] | remaining activity at 10 µM (MNK1) [%] | remaining activity at 10 µM (MST2) [%] | remaining activity at 10 µM (BTK) [%] | remaining activity at 10 µM (CHK2) [%] | remaining activity at 10 µM (Aurora B) [%] | remaining activity at 10 µM (TBK1) [%] | remaining activity at 10 µM (p38s MAPK) [%] | remaining activity at 10 µM (IKKb) [%]
C[C@H](c1ccccc1)n1c(=O)[nH]c2ncc(-c3ccccc3)nc21 [Compound 14, (R)-6-Phenyl-1-(1-phenylethyl)-1H-imidazo[4,5-b]pyrazin-2(3H)-one] | 64 | 76 | 78 | 97 | 93 | 99 | 100 | 77 | 77
O=c1[nH]c2ncc(-c3ccc(F)cc3)nc2n1C1CCCCC1 [Compound 12, 1-Cyclohexyl-6-(4-fluorophenyl)-1H-imidazo[4,5-b]pyrazin-2(3H)-one] | 89 | 93 | 94 | 111 | 96 | 85 | 92 | 76 | 94
O=c1[nH]c2ncc(-c3ccc(F)cc3)nc2n1CC1CC1 [Compound 10] | 74 | 93 | 92 | 104 | 97 | 93 | 95 | 91 | 105
CC(c1ccccc1)n1c(=O)[nH]c2ncc(-c3ccc(F)cc3)nc21 (stereo not drawn) [Compound 1] | 80 | 83 | 86 | 113 | 97 | 117 | 95 | 108 | 103

Reference: article PMC4648050, “Discovery of Inhibitors of Trypanosoma brucei by Phenotypic Screening of a Focused Protein Kinase Library” (Chemmedchem, 2015)
